Data published in ChEMBL document CHEMBL4665836, “Overcoming β-Lactam resistance in Pseudomonas aeruginosa using non-canonical tobramycin-based antibiotic adjuvants” (2020).

Columns and labels:
Type in all cases: functional
Pseudomonas aeruginosa [1] = experiment: Potentiation of imipenem-induced antibacterial activity against carbapenem-resistant Pseudomonas aeruginosa 88949 clinical isolate assessed as fold reduction in imipenem MIC at 8 uM in presence of beta-lactamase inhibitor, rele-bactam
Pseudomonas aeruginosa [2] = experiment: Potentiation of imipenem-induced antibacterial activity against carbapenem-resistant Pseudomonas aeruginosa 109084 clinical isolate assessed as fold reduction in imipenem MIC at 8 uM in presence of beta-lactamase inhibitor, rele-bactam
Pseudomonas aeruginosa [3] = experiment: Potentiation of aztreonam-induced antibacterial activity against carbapenem-resistant Pseudomonas aeruginosa 88949 clinical isolate assessed as fold reduction in aztreonam MIC at 8 uM in presence of beta-lactamase inhibitor, avi-bactam
Pseudomonas aeruginosa [4] = experiment: Potentiation of aztreonam-induced antibacterial activity against carbapenem-resistant Pseudomonas aeruginosa 107092 clinical isolate assessed as fold reduction in aztreonam MIC at 8 uM in presence of beta-lactamase inhibitor, avi-bactam
Pseudomonas aeruginosa [5] = experiment: Potentiation of ceftazidime-induced antibacterial activity against carbapenem-resistant Pseudomonas aeruginosa 107092 clinical isolate assessed as fold reduction in ceftazidime MIC at 8 uM in presence of beta-lactamase inhibitor, avi-bactam
Pseudomonas aeruginosa [6] = experiment: Potentiation of imipenem-induced antibacterial activity against carbapenem-resistant Pseudomonas aeruginosa 109084 clinical isolate assessed as imipenem MIC at 8 uM by checkerboard assay (reference value: 16 ug/ml)
Pseudomonas aeruginosa [7] = experiment: Potentiation of imipenem-induced antibacterial activity against carbapenem-resistant Pseudomonas aeruginosa 88949 clinical isolate assessed as imipenem MIC at 8 uM by checkerboard assay (reference value: 64 ug/ml)
Pseudomonas aeruginosa [8] = experiment: Potentiation of imipenem-induced antibacterial activity against carbapenem and colistin-resistant Pseudomonas aeruginosa 101243 clinical isolate assessed as imipenem MIC at 8 uM by checkerboard assay (reference value: 8 ug/ml)
Pseudomonas aeruginosa [9] = experiment: Potentiation of imipenem-induced antibacterial activity against carbapenem-resistant Pseudomonas aeruginosa 101885 clinical isolate assessed as imipenem MIC at 8 uM by checkerboard assay (reference value: 4 ug/ml)
Pseudomonas aeruginosa [10] = experiment: Potentiation of imipenem-induced antibacterial activity against carbapenem-resistant Pseudomonas aeruginosa 100036 clinical isolate assessed as imipenem MIC at 8 uM by checkerboard assay (reference value: 8 ug/ml)
Pseudomonas aeruginosa [11] = experiment: Potentiation of imipenem-induced antibacterial activity against carbapenem-resistant Pseudomonas aeruginosa 264-104354 clinical isolate assessed as imipenem MIC at 8 uM by checkerboard assay (reference value: 16 ug/ml)
Pseudomonas aeruginosa [12] = experiment: Potentiation of imipenem-induced antibacterial activity against carbapenem-resistant Pseudomonas aeruginosa 262-101856 clinical isolate assessed as imipenem MIC at 8 uM by checkerboard assay (reference value: 32 ug/ml)
Pseudomonas aeruginosa [13] = experiment: Potentiation of imipenem-induced antibacterial activity against carbapenem-resistant Pseudomonas aeruginosa 260-97103 clinical isolate assessed as imipenem MIC at 8 uM by checkerboard assay (reference value: 16 ug/ml)
Pseudomonas aeruginosa [14] = experiment: Potentiation of imipenem-induced antibacterial activity against wild-type Pseudomonas aeruginosa PAO1 assessed as imipenem MIC at 8 uM by checkerboard assay (reference value: 4 ug/ml)
Pseudomonas aeruginosa [15] = experiment: Potentiation of ceftazidime-induced antibacterial activity against carbapenem-resistant Pseudomonas aeruginosa PAO750 harboring and mexAB-oprM/mexCD-oprJ/mexEF-oprN/mexJK/mexXY/opmH efflux deficient mutant assessed as ceftazidime MIC at 8 uM by checkerboard assay (reference value: 0.5 ug/ml)
Pseudomonas aeruginosa [16] = experiment: Potentiation of ceftazidime-induced antibacterial activity against carbapenem and colistin-resistant Pseudomonas aeruginosa 114228 clinical isolate assessed as ceftazidime MIC at 8 uM by checkerboard assay (reference value: 8 ug/ml)
Pseudomonas aeruginosa [17] = experiment: Potentiation of ceftazidime-induced antibacterial activity against carbapenem and colistin-resistant Pseudomonas aeruginosa 101243 clinical isolate assessed as ceftazidime MIC at 8 uM by checkerboard assay (reference value: 64 ug/ml)
Pseudomonas aeruginosa [18] = experiment: Potentiation of ceftazidime-induced antibacterial activity against carbapenem-resistant Pseudomonas aeruginosa 101885 clinical isolate assessed as ceftazidime MIC at 8 uM by checkerboard assay (reference value: 8 ug/ml)
Pseudomonas aeruginosa [19] = experiment: Potentiation of ceftazidime-induced antibacterial activity against carbapenem-resistant Pseudomonas aeruginosa 100036 clinical isolate assessed as ceftazidime MIC at 8 uM by checkerboard assay (reference value: 8 ug/ml)
Pseudomonas aeruginosa [20] = experiment: Potentiation of ceftazidime-induced antibacterial activity against carbapenem-resistant Pseudomonas aeruginosa 264-104354 clinical isolate assessed as ceftazidime MIC at 8 uM by checkerboard assay (reference value: 128 ug/ml)
Pseudomonas aeruginosa [21] = experiment: Potentiation of ceftazidime-induced antibacterial activity against carbapenem-resistant Pseudomonas aeruginosa 260-97103 clinical isolate assessed as ceftazidime MIC at 8 uM by checkerboard assay (reference value: 32 ug/ml)
Pseudomonas aeruginosa [22] = experiment: Potentiation of aztreonam-induced antibacterial activity against carbapenem-resistant Pseudomonas aeruginosa 108590 clinical isolate assessed as aztreonam MIC at 8 uM by checkerboard assay (reference value: 32 ug/ml)
Pseudomonas aeruginosa [23] = experiment: Potentiation of aztreonam-induced antibacterial activity against carbapenem-resistant Pseudomonas aeruginosa 107092 clinical isolate assessed as aztreonam MIC at 8 uM by checkerboard assay (reference value: 64 ug/ml)
Pseudomonas aeruginosa [24] = experiment: Potentiation of aztreonam-induced antibacterial activity against carbapenem and colistin-resistant Pseudomonas aeruginosa 114228 clinical isolate assessed as aztreonam MIC at 8 uM by checkerboard assay (reference value: 32 ug/ml)
Pseudomonas aeruginosa [25] = experiment: Potentiation of aztreonam-induced antibacterial activity against carbapenem-resistant Pseudomonas aeruginosa 100036 clinical isolate assessed as aztreonam MIC at 8 uM by checkerboard assay (reference value: 16 ug/ml)
Pseudomonas aeruginosa [26] = experiment: Potentiation of aztreonam-induced antibacterial activity against carbapenem and colistin-resistant Pseudomonas aeruginosa 91433 clinical isolate assessed as aztreonam MIC at 8 uM by checkerboard assay (reference value: 16 ug/ml)
Pseudomonas aeruginosa [27] = experiment: Potentiation of aztreonam-induced antibacterial activity against carbapenem-resistant Pseudomonas aeruginosa 264-104354 clinical isolate assessed as aztreonam MIC at 8 uM by checkerboard assay (reference value: 32 ug/ml)
Pseudomonas aeruginosa [28] = experiment: Potentiation of aztreonam-induced antibacterial activity against carbapenem-resistant Pseudomonas aeruginosa 259-96918 clinical isolate expressing metallo-beta-lactamase assessed as aztreonam MIC at 8 uM by checkerboard assay (reference value: 32 ug/ml)
Pseudomonas aeruginosa [29] = experiment: Potentiation of piperacillin-induced antibacterial activity against wild type Pseudomonas aeruginosa PAO1 assessed as piperacillin MIC at 8 uM by checkerboard assay (reference value: 8 ug/ml)
Pseudomonas aeruginosa [30] = experiment: Antibacterial activity against Pseudomonas aeruginosa PAO750 harboring mexAB-oprM/mexCD-oprJ/mexEF-oprN/mexJK/mexXY/opmH efflux deficient mutant
Pseudomonas aeruginosa [31] = experiment: Potentiation of ceftazidime-induced antibacterial activity against carbapenem-resistant Pseudomonas aeruginosa 259-96918 clinical isolate expressing metallo-beta-lactamase assessed as ceftazidime MIC at 8 uM by checkerboard assay (reference value: 512 ug/ml)
Pseudomonas aeruginosa [32] = experiment: Potentiation of piperacillin-induced antibacterial activity against wild type Pseudomonas aeruginosa PAO1 assessed as fold reduction in piperacillin MIC at 8 uM

Row | Structure (SMILES) | fold change (FC) (Pseudomonas aeruginosa [1]) | fold change (FC) (Pseudomonas aeruginosa [2]) | fold change (FC) (Pseudomonas aeruginosa [3]) | fold change (FC) (Pseudomonas aeruginosa [4]) | fold change (FC) (Pseudomonas aeruginosa [5]) | MIC (Pseudomonas aeruginosa [6]) [µg/mL] | MIC (Pseudomonas aeruginosa [7]) [µg/mL] | MIC (Pseudomonas aeruginosa [8]) [µg/mL] | MIC (Pseudomonas aeruginosa [9]) [µg/mL] | MIC (Pseudomonas aeruginosa [10]) [µg/mL] | MIC (Pseudomonas aeruginosa [11]) [µg/mL] | MIC (Pseudomonas aeruginosa [12]) [µg/mL] | MIC (Pseudomonas aeruginosa [13]) [µg/mL] | MIC (Pseudomonas aeruginosa [14]) [µg/mL] | MIC (Pseudomonas aeruginosa [15]) [µg/mL] | MIC (Pseudomonas aeruginosa [16]) [µg/mL] | MIC (Pseudomonas aeruginosa [17]) [µg/mL] | MIC (Pseudomonas aeruginosa [29]) [µg/mL] | MIC (Pseudomonas aeruginosa [30]) [µg/mL] | fold change (FC) (Pseudomonas aeruginosa [32]) | further results
1 | NC[C@H]1O[C@H](O[C@H]2[C@H](OCCCCc3cn(CCCCO[C@@H]4[C@@H](O[C@H]5O[C@H](CO)[C@@H](O)[C@H](N)[C@H]5O)[C@H](N)C[C@H](N)[C@H]4O[C@H]4O[C@H](CN)[C@@H](O)C[C@H]4N)nn3)[C@@H](O[C@H]3O[C@H](CO)[C@@H](O)[C@H](N)[C@H]3O)[C@H](N)C[C@@H]2N)[C@H](N)C[C@@H]1O.O=C(O)C(F)(F)F.O=C(O)C(F)(F)F.O=C(O)C(F)(F)F.O=C(O)C(F)(F)F.O=C(O)C(F)(F)F.O=C(O)C(F)(F)F.O=C(O)C(F)(F)F.O=C(O)C(F)(F)F.O=C(O)C(F)(F)F.O=C(O)C(F)(F)F | 16 | 16 | 16 | 16 | 16 | 8 | 4 | 8 | 4 | 4 | 4 | 2 | 16 | 1 | 0.06 | 1 | 64 | 0.5 | > 128 | 2 | MIC (Pseudomonas aeruginosa [18]): 2 µg/mL; MIC (Pseudomonas aeruginosa [19]): 2 µg/mL; MIC (Pseudomonas aeruginosa [20]): 32 µg/mL; MIC (Pseudomonas aeruginosa [21]): 8 µg/mL; MIC (Pseudomonas aeruginosa [22]): 8 µg/mL; MIC (Pseudomonas aeruginosa [23]): 16 µg/mL; MIC (Pseudomonas aeruginosa [24]): 4 µg/mL; MIC (Pseudomonas aeruginosa [25]): 2 µg/mL; MIC (Pseudomonas aeruginosa [26]): 4 µg/mL; MIC (Pseudomonas aeruginosa [27]): 8 µg/mL; MIC (Pseudomonas aeruginosa [28]): 8 µg/mL; MIC (Pseudomonas aeruginosa [31]): 128 µg/mL
2 | Cl.Cl.Cl.Cl.Cl.NC[C@H]1O[C@H](O[C@H]2[C@H](OCCCCCCCCCCCCN3CCN(c4cc5c(cc4F)c(=O)c(C(=O)O)cn5C4CC4)CC3)[C@@H](O)[C@H](N)C[C@@H]2N)[C@H](N)C[C@@H]1O | 16 | 16 | 16 | 16 | 16 | 8 | 64 | 4 | 2 | 4 | 8 | 8 | 2 | 1 | 0.01 | 4 | 4 | 2 | 2 | 2 | MIC (Pseudomonas aeruginosa [18]): 4 µg/mL; MIC (Pseudomonas aeruginosa [19]): 4 µg/mL; MIC (Pseudomonas aeruginosa [20]): 64 µg/mL; MIC (Pseudomonas aeruginosa [21]): 0.25 µg/mL; MIC (Pseudomonas aeruginosa [22]): 0.13 µg/mL; MIC (Pseudomonas aeruginosa [23]): 32 µg/mL; MIC (Pseudomonas aeruginosa [24]): 8 µg/mL; MIC (Pseudomonas aeruginosa [25]): 8 µg/mL; MIC (Pseudomonas aeruginosa [26]): 8 µg/mL; MIC (Pseudomonas aeruginosa [27]): 16 µg/mL; MIC (Pseudomonas aeruginosa [28]): 8 µg/mL; MIC (Pseudomonas aeruginosa [31]): 128 µg/mL
3 | Cl.Cl.Cl.Cl.Cl.Cl.NC[C@H]1O[C@H](O[C@H]2[C@H](OCCCCCCCCCCCCN3CCN(c4cc5c(cc4F)c(=O)c(C(=O)O)cn5C4CC4)CC3)[C@@H](O[C@H]3O[C@H](CO)[C@@H](O)[C@H](N)[C@H]3O)[C@H](N)C[C@@H]2N)[C@H](N)C[C@@H]1O | 16 | 16 | 16 | 16 | 16 | 8 | 8 | 2 | 2 | 2 | 4 | 4 | 2 | 0.5 | 0.03 | 0.5 | 8 | 2 | 2 | 2 | MIC (Pseudomonas aeruginosa [18]): 1 µg/mL; MIC (Pseudomonas aeruginosa [19]): 2 µg/mL; MIC (Pseudomonas aeruginosa [20]): 16 µg/mL; MIC (Pseudomonas aeruginosa [21]): 4 µg/mL; MIC (Pseudomonas aeruginosa [22]): 0.5 µg/mL; MIC (Pseudomonas aeruginosa [23]): 8 µg/mL; MIC (Pseudomonas aeruginosa [24]): 2 µg/mL; MIC (Pseudomonas aeruginosa [25]): 4 µg/mL; MIC (Pseudomonas aeruginosa [26]): 4 µg/mL; MIC (Pseudomonas aeruginosa [27]): 8 µg/mL; MIC (Pseudomonas aeruginosa [28]): 8 µg/mL; MIC (Pseudomonas aeruginosa [31]): 64 µg/mL
4 | NC[C@H]1O[C@H](O[C@H]2[C@H](OCCCCCCCCN3CCCNCCNCCCNCC3)[C@@H](O[C@H]3O[C@H](CO)[C@@H](O)[C@H](N)[C@H]3O)[C@H](N)C[C@@H]2N)[C@H](N)C[C@@H]1O.O=C(O)C(F)(F)F.O=C(O)C(F)(F)F.O=C(O)C(F)(F)F.O=C(O)C(F)(F)F.O=C(O)C(F)(F)F.O=C(O)C(F)(F)F.O=C(O)C(F)(F)F.O=C(O)C(F)(F)F.O=C(O)C(F)(F)F | 16 | 16 | 16 | 16 | 16 | 8 | 32 | 8 | 2 | 8 | 8 | 16 | 8 | 2 |  |  |  | 2 | 128 | 2 | 
5 | NC[C@H]1O[C@H](O[C@H]2[C@H](OCCCCCCCCN3CCCNCCNCCCNCC3)[C@@H](O)[C@H](N)C[C@@H]2N)[C@H](N)C[C@@H]1O.O=C(O)C(F)(F)F.O=C(O)C(F)(F)F.O=C(O)C(F)(F)F.O=C(O)C(F)(F)F.O=C(O)C(F)(F)F.O=C(O)C(F)(F)F.O=C(O)C(F)(F)F.O=C(O)C(F)(F)F | 16 | 16 | 16 | 16 | 16 | 16 | 64 | 8 | 2 | 8 | 16 | 16 | 8 | 4 | 0.13 | 4 | 8 | 2 | > 128 | 2 | MIC (Pseudomonas aeruginosa [18]): 2 µg/mL; MIC (Pseudomonas aeruginosa [19]): 4 µg/mL; MIC (Pseudomonas aeruginosa [20]): 32 µg/mL; MIC (Pseudomonas aeruginosa [21]): 16 µg/mL; MIC (Pseudomonas aeruginosa [22]): 8 µg/mL; MIC (Pseudomonas aeruginosa [23]): 32 µg/mL; MIC (Pseudomonas aeruginosa [24]): 16 µg/mL; MIC (Pseudomonas aeruginosa [25]): 8 µg/mL; MIC (Pseudomonas aeruginosa [26]): 8 µg/mL; MIC (Pseudomonas aeruginosa [27]): 16 µg/mL; MIC (Pseudomonas aeruginosa [28]): 8 µg/mL; MIC (Pseudomonas aeruginosa [31]): 128 µg/mL
